{"source": "patent US8486916B2", "about": "“Medicine, food and drink or feed containing sphingomyelin” (Megmilk Snow Brand Co., Ltd., priority 2005, dated 2013)", "key": {"cholera toxin": {"test_system": "cholera toxin", "settings": "in vivo"}, "[1]": {"test_system": "lymphocytes from human milk", "experiment": "Test on promotion of secretory IgA production", "assay_type": "cell-based", "settings": "3 μg added to 3 ml Petri dish; after 7 days", "method": "5 ml of aseptically collected human milk was diluted twice with a 10 mM phosphate-buffered saline (PBS, pH 7.2) containing 150 mM NaCl and then layered in a test tube containing 5 ml of a separation solution (mixed solution of 33.4% Conray 400 (manufactured by Daiichi Pharmaceutical Co., Ltd.) and 9% Ficoll (manufactured by Pharmacia) at a ratio of 5:12). After centrifugation at 400×G for 30 minutes, the intermediate layer in which lymphocytes were gathered was collected with a Pasteur pipette. The lymphocytes were dispersed and washed in 10 ml of PBS and then centrifuged at 150×G for 10 minutes. This washing procedure was repeated three times. Then, 12 ml of an RPMI-1640 medium containing insulin (10 μg/ml) and transferrin (5 μg/ml) was added thereto, and the mixture was dispensed in an amount of 3 ml/Petri dish into 3 Petri dishes (A; […]"}, "[2]": {"test_system": "erythrocyte membrane ghost", "experiment": "Antioxidative activity: erythrocyte membrane ghost oxidation (TBA reaction)", "assay_type": "biochemical, rabbit", "method": "The antioxidative activity of sphingomyelin was measured according to the method of Osawa et al. (J. Agric. Food Chem., vol. 35, pp. 809-812, 1987). Specifically, preserved rabbit blood was mixed with an equal amount of an isotonic solution (10 mM phosphate buffer/152 mM sodium chloride, pH 7.4), followed by centrifugation at 1,500×g (3,500 rpm) at 4° C. for 20 minutes. Blood corpuscles washed by repeating this procedure three times were mixed with an equal amount of a hypotonic solution (10 mM phosphate buffer, pH 7.4), followed by centrifugation at 20,000×g (11,000 rpm) at 4° C. for 40 minutes. Then, loose pellets (erythrocyte membrane ghost) obtained by repeating this procedure four times were used to examine antioxidative activity. […] An oxidation reaction was performed by the addition of an oxidizing agent. Subsequently, a TBA reaction was performed. Then, absorbance at 532 nm was measured to quantify an oxidation product."}, "[3]": {"test_system": "enteropathogenic E. coli O-157", "experiment": "Test II on prevention of enteropathogenic E. coli O-157 infection", "assay_type": "in vivo", "settings": "mice, 8th day after administration of E. coli", "method": "Sphingomyelin was tested for its effect of preventing enteropathogenic E. coli O-157 infection according to the method described in “Test Example 2” of Japanese Patent Laid-Open No. 2001-2704.\nTest II on prevention of enteropathogenic E. coli O-157 infection\nThe survival rate of mice on the 8th day after the administration of E. coli was measured in the same way as in Test Example 10 except that the intake of sphingomyelin was changed to 0.1 to 10 mg/day."}, "EAE rats": {"test_system": "EAE rats", "experiment": "Effect of sphingomyelin on EAE rats", "assay_type": "in vivo, Lewis rats", "settings": "for Cumulative score of symptoms: six-grade score 0-5", "method": "A therapeutic effect on EAE rats serving as models of multiple sclerosis, one of demyelinating diseases, will be shown. The hind footpad of Lewis rats (female, 6 week old) in groups each containing 5 individuals was immunized with a mixture of syngeneic rat brain homogenates with an equal amount of a complete Freund adjuvant (manufactured by Difco) as an antigen for inducing EAE at a dose of 80 mg in terms of the amount of the brain homogenates. Sphingomyelin was intraperitoneally administered at a dose shown in Table 9 for 18 days from the immunization day. The measurement of body weights and the observation of EAE symptoms were performed every day. […] The therapeutic effect was assessed based on the cumulative score of the symptoms in each group. […] Only a saline was administered to the control group."}, "[4]": {"test_system": "pigmentation in the back skin of the guinea pigs", "experiment": "Anti-pigmentation effect by oral administration (ultraviolet-irradiated skin)", "assay_type": "in vivo, A-1 guinea pigs", "method": "Sphingomyelin was tested for its anti-pigmentation effect by oral administration. The back of female A-1 guinea pigs (body weight: approximately 400 g) was shaved and irradiated with ultraviolet rays (UVA (max. 360 nm): 30.3 kJ/m^2, UVB (max. 312 nm): 4.8 kJ/m^2) once daily for 4 days. […] The oral administration to each group was performed once daily using a sonde, and the guinea pigs were raised for 4 weeks. The sphingomyelin raw material of Example 1 was suspended in 10 g of a saline, and this suspension was orally administered to each of the groups B to D. Influence on pigmentation in the back skin of the guinea pigs in each group was measured with a colorimeter (CHROMA METER CR-200) manufactured by MINOLTA at the start of sample administration and at the completion of sample administration. A lightness recovery rate from the start of sample administration was calculated."}, "[5]": {"test_system": "carrageenin-induced edema", "experiment": "Carrageenin-induced footpad edema method", "assay_type": "in vivo, Wistar rats", "settings": "100 mg/kg oral; 5 hours after λ-carrageenin injection", "method": "The anti-inflammatory effect of sphingomyelin was tested by a carrageenin-induced footpad edema method. Specifically, a test subject shown in Table 15 was suspended in an aqueous solution containing 0.5% carboxymethylcellulose and orally administered (100 mg/kg) to male Wistar rats (body weight: 110 to 130 g, 8 individuals per group) according to the method of Winter et al. (Proceedings of the Society for Experimental Biology & Medicine, vol. 111, pp. 554, 1962). […] An aqueous solution containing 0.5% carboxymethylcellulose and no test substance was administered to rats in a control group. A rate of increase in footpad volume (V0) attributed to the injection of λ-carrageenin was measured in the control group in the same way as above. An carrageenin-induced edema inhibition rate (%) was calculated according to the calculation formula: (V0−V1)×100/V0 and used as the anti-inflammatory activity of the test substance. A higher value of this inhibition rate indicates higher anti-inflammatory activity."}, "enteropathogenic E. coli": {"test_system": "enteropathogenic E. coli", "settings": "SD rats"}, "[6]": {"settings": "1 mg/kg intraperitoneal for 18 days"}, "[7]": {"settings": "2 mg/kg intraperitoneal for 18 days"}}, "note": "Like-named read-outs stand apart in the source and are kept apart here.", "data": [{"substance": "sphingomyelin", "values": [{"measurement": "Inhibition rate", "setting": "cholera toxin", "result": "38.9 ± 3.8", "unit": "%"}, {"measurement": "IgA content in the culture solution", "setting": "[1]", "result": 3.11, "unit": "µg/mL"}, {"measurement": "absorbance at 532 nm (oxidation product) with respect to absence of added sphingomyelin defined as 100%", "setting": "[2]; sample concentration 0.01 mM, lower = higher antioxidative activity", "result": 98, "unit": "%"}, {"measurement": "absorbance at 532 nm (oxidation product) with respect to absence of added sphingomyelin defined as 100%", "setting": "[2]; sample concentration 0.1 mM", "result": 95, "unit": "%"}, {"measurement": "absorbance at 532 nm (oxidation product) with respect to absence of added sphingomyelin defined as 100%", "setting": "[2]; sample concentration 1 mM", "result": 80, "unit": "%"}, {"measurement": "absorbance at 532 nm (oxidation product) with respect to absence of added sphingomyelin defined as 100%", "setting": "[2]; sample concentration 10 mM", "result": 61, "unit": "%"}, {"measurement": "Survival rate", "setting": "[3]; intake 0.1 mg/day, control 35", "result": 35, "unit": "%"}, {"measurement": "Survival rate", "setting": "[3]; intake 1.0 mg/day", "result": 65, "unit": "%"}, {"measurement": "Survival rate", "setting": "[3]; intake 5.0 mg/day", "result": 70, "unit": "%"}, {"measurement": "Survival rate", "setting": "[3]; intake 10.0 mg/day", "result": 70, "unit": "%"}, {"measurement": "Cumulative score of symptoms with respect to saline-administered control group defined as 100%", "setting": "EAE rats; [6]", "result": 18, "unit": "%"}, {"measurement": "Frequency of onset", "setting": "EAE rats; [6]", "result": "2/5"}, {"measurement": "The average number of days required for onset", "setting": "EAE rats; [6]", "result": 15.2}, {"measurement": "Cumulative score of symptoms", "setting": "EAE rats; [6]", "result": 10}, {"measurement": "Cumulative score of symptoms with respect to saline-administered control group defined as 100%", "setting": "EAE rats; [7]", "result": 19, "unit": "%"}, {"measurement": "Frequency of onset", "setting": "EAE rats; [7]", "result": "2/5"}, {"measurement": "The average number of days required for onset", "setting": "EAE rats; [7]", "result": 14.5}, {"measurement": "Cumulative score of symptoms", "setting": "EAE rats; [7]", "result": 11}, {"measurement": "Lightness recovery rate", "setting": "[4]; 2 mg/kg oral once daily for 4 weeks (group B), group A 31", "result": 48, "unit": "%"}, {"measurement": "Lightness recovery rate", "setting": "[4]; 5 mg/kg oral once daily for 4 weeks (group C)", "result": 62, "unit": "%"}, {"measurement": "Lightness recovery rate", "setting": "[4]; 10 mg/kg oral once daily for 4 weeks (group D)", "result": 78, "unit": "%"}, {"measurement": "lightness recovery rate relative to that in the group A", "setting": "[4]; groups B to D versus saline group A, 4-week oral administration", "result": "up to 2.5 times"}, {"measurement": "Inhibition rate", "setting": "[5]", "result": 40.2, "unit": "%"}, {"measurement": "Incidence of diarrhea", "setting": "enteropathogenic E. coli; intake 0.1 mg/day in feed, control 100", "result": 100, "unit": "%"}, {"measurement": "Incidence of diarrhea", "setting": "enteropathogenic E. coli; intake 1.0 mg/day in feed", "result": 40, "unit": "%"}, {"measurement": "Incidence of diarrhea", "setting": "enteropathogenic E. coli; intake 5.0 mg/day in feed", "result": 30, "unit": "%"}, {"measurement": "Incidence of diarrhea", "setting": "enteropathogenic E. coli; intake 10.0 mg/day in feed", "result": 10, "unit": "%"}]}]}
